How the values were obtained:
[1] = system: Wild-type CHO cells; experiment: FACS staining of wild-type CHO cells; assay type: binding
Protocol: (§1) Stable transfectants were isolated essentially as described (Mattheakis et al., 1999). All ScFv FITC expression constructs contain a neo resistance cassette. Primary G418-resistant populations were stained with mAb 179 labeled with fluorescein as follows. Antibody 179 was linked to fluorescein using fluorescein isothiocyanate (FITC, Molecular Probes, Eugene, Oreg.). This modified mAb 179 contained on average six fluoresceins per antibody molecule. Cells, ˜3-5×10^6, were resuspended in 500 μl of PBS, 0.1% BSA containing mAb 179-FITC at a final concentration of 8 μg/ml. Cells were rotated in the dark for 45 min, spun down, and subsequently resuspended in PBS and enrich sorted using a FACStar plus (Becton-Dickinson, San Jose, Calif.) based on the highest fluorescence. Enriched populations were cloned by limiting dilution and subsequently screened by ELISA. Briefly, 96well plates of clones were fixed with 200 μl per well of ice cold methanol for 10 min. Subsequent steps were done at room temperature (rt). Plates were blocked with PBS, 1% BSA for 30 min and then incubated with mAb 179, 1 μg/ml in PBS, 0.1% BSA for 1h. After 3 washes of 10 min each with PBS, wells were incubated with 1 μg/ml goat anti-mouse-HRP (Pierce, Rockford, Ill.) in PBS, 0.1% BSA for 1 h, washed with PBS three times as above, developed with a TMB peroxidase substrate colorometric assay ( Kirkegaard & Perry Laboratories, Gaithersburg, Md.) and the OD415 measured. Reactive clones were expanded, stained with mAb 179-fluorescein as above and analyzed using a FACScan (Becton-Dickinson, San Jose, Calif.) to choose those with the highest expression of the ScFv based on fluorescence. Clones were also analyzed by anti-179 Western blotting to verify the size of the ScFv protein expressed. ScFv-expressing clones were compared to wild-type CHO-K1 cells by FACScan using further reagents as follows in PBS, 0.1% BSA as above for mAb 179-fluorescein staining. FITC-BSA (Sigma, St. Louis, Mo.) was used at a final concentration of 20 μg/ml and DTPA-FITC and In-DTPA-FITC were each used at a final concentration of 2 μg/ml.

[2] = system: ScFv FITC on CHO cells; experiment: Competition binding on CHO ScFv FITC-expressing cells; details: in the presence of 1 nM 111In-DTPA-FITC as tracer
Protocol: Wild-type or ScFv FITC-expressing cells were plated at 3×10^4 cells/well in 96-well plates one day before binding experiments. […] Cells were gently agitated for 45 minutes at rt and then washed three times 250 ul/well PBS at 4 degrees C. […] For competition experiments, competitor compounds were diluted in 50 ul/well of PBS, 0.1% BSA and added first to washed wells containing cells as above. […] Incubations, washes and counting were performed as above.

[3] = system: FITC ScFv expressed on CHO cells; experiment: FACS staining of CHO cells expressing FITC ScFv; assay type: binding
Protocol: as §1

Row | Compound | Mean (fluorescence, FACS) ([1]; marker A11) | Median (fluorescence, FACS) ([1]; marker A11) | Mean (fluorescence, FACS) ([1]; marker M1) | Median (fluorescence, FACS) ([1]; marker M1) | IC50 [2] [nM] | Mean (fluorescence, FACS) ([3]; marker A11) | Median (fluorescence, FACS) ([3]; marker A11) | Mean (fluorescence, FACS) ([3]; marker M1) | Median (fluorescence, FACS) ([3]; marker M1)
1 | Diethylenetriaminepenta-acetic acid (DTPA) coupled to fluorescein [DTPA-FITC] | 13.89 | 7.99 | 8.24 | 7.84 | 11.8 | 100.62 | 90.58 | 98.06 | 91.40
2 | O=C1OC2(c3ccccc31)c1cc(I)c(O)c(I)c1Oc1c2cc(I)c(O)c1I [erythrosine, reference compound] | – | – | – | – | 309 | – | – | – | –
